# Laboratory results from patent US6737383B1, “Herbicidal oxadiazolidines” (priority 1999, dated 2004).
# Assays:
# bamyardgrass = assay: Test B flood test barnyardgrass; assay type: in vivo, Echinochloa crus-galli
# Method in brief: (§1)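 Plants were grown to the 2-leaf stage before treatment with test chemical, then held in a greenhouse for twelve to sixteen days. Injury was visually rated against untreated controls on a 0–10 scale, where 0 is no effect and 10 is complete control.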
# surinam grass = assay: Test B pre/postemergence surinam grass; assay type: in vivo, Brachiaria decumbens; settings: Preemergence
# Method in brief: (§2)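 Response is a visual 0-to-10 score relative to untreated plants, where 0 means no effect and 10 means complete control, taken twelve to sixteen days after application. Treatments went onto soil at planting and onto foliage of 1- to 4-leaf plants, using a surfactant-containing non-phytotoxic solvent.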
# corn = assay: Test B pre/postemergence corn; assay type: in vivo, Zea mays; settings: Preemergence
# Method in brief: as §2
# sugar beet = assay: Test B pre/postemergence sugar beet; assay type: in vivo, Beta vulgaris; settings: Preemergence
# Method in brief: as §2
# rape = assay: Test B pre/postemergence rape; assay type: in vivo, Brassica napus; settings: Preemergence
# Method in brief: as §2
# wild oat = assay: Test B pre/postemergence wild oat; assay type: in vivo, Avena fatua; settings: Preemergence
# Method in brief: as §2
# crabgrass = assay: Test B pre/postemergence crabgrass; assay type: in vivo, Digitaria sanguinalis; settings: Preemergence
# Method in brief: as §2
# blackgrass = assay: Test B pre/postemergence blackgrass; assay type: in vivo, Alopecurus myosuroides; settings: Preemergence
# Method in brief: as §2
# bedstraw = assay: Test B pre/postemergence bedstraw; assay type: in vivo, Galium aparine; settings: Preemergence
# Method in brief: as §2
# pigweed = assay: Test B pre/postemergence pigweed; assay type: in vivo, Amaranthus retroflexus; settings: Preemergence
# Method in brief: as §2
# morningglory = assay: Test B pre/postemergence morningglory; assay type: in vivo, Ipomoea hederacea; settings: Preemergence
# Method in brief: as §2
# giant foxtail = assay: Test B pre/postemergence giant foxtail; assay type: in vivo, Setaria faberii; settings: Preemergence
# Method in brief: as §2
# soybean = assay: Test B pre/postemergence soybean; assay type: in vivo, Glycine max; settings: Preemergence
# Method in brief: as §2
# purple nutsedge = assay: Test B pre/postemergence purple nutsedge; assay type: in vivo, Cyperus rotundus; settings: Preemergence
# Method in brief: as §2
# smallflower flatsedge = assay: Test B flood test smallflower flatsedge; assay type: in vivo, Cyperus difformis
# Method in brief: as §1
# wheat = assay: Test B pre/postemergence wheat; assay type: in vivo, Triticum aestivum; settings: Preemergence
# Method in brief: as §2
# rice = assay: Test B flood test rice; assay type: in vivo, Oryza sativa
# Method in brief: as §1
# duck salad = assay: Test B flood test duck salad; assay type: in vivo, Heteranthera limosa
# Method in brief: as §1
# cocklebur = assay: Test B pre/postemergence cocklebur; assay type: in vivo, Xanthium strumarium; settings: Preemergence
# Method in brief: as §2
# velvetleaf = assay: Test B pre/postemergence velvetleaf; assay type: in vivo, Abutilon theophrasti; settings: Preemergence
# Method in brief: as §2
# [1] = tested on: Pioneer hybrid P33G26 corn; assay: Test H corn injury, herbicide and safener mixtures applied to soil; settings: in vivo
# Description: Mixtures of the herbicide and safeners were applied to pots of a soil mixture previously sown with corn. Pioneer hybrid P33G26 corn was sown in pots containing a sterile mix of 60% sassafras soil and 40% Metro Mix 360® growing medium (pH 6.7, O.M. 2%). Test compounds were dissolved in AGWT (a mixture of 0.25% Tween 20 surfactant, 5% water, 5% glycerin and 89.75% acetone) and sprayed on the soil as pots passed under a stationary 8002E nozzle. Treatments were applied at a 33 gal/acre rate of the AGWT carrier. After treatment, the test pots were placed in the greenhouse and watered. There were two replications for each treatment. Each pot contained eight corn seeds. The pots within each replication were placed in random positions on greenhouse benches. Test plants were fertilized as they were watered with approximately 200 ppm of N (as water soluble 20-20-20 fertilizer) which was metered into the water lines with a fertilizer injector. Daytime temperatures was 23-30° C. and night time temperature was 18-25° C. The test plants were supplemented with artificial lighting. The lights were activated whenever the natural light intensity dropped below the programmed threshold. Day length was maintained for approximately 14 hours.
# The test was evaluated approximately 12 days after treatment. […]
# [2] = Rate 62 g/ha, flood test species, Pre-emergence, visual evaluation after twelve to sixteen days
# [3] = Rate 125 g/ha, under heading Pre-emergence, flood test species, visual evaluation after twelve to sixteen days
# [4] = Rate 250 g/ha, Pre-emergence (flood test species), scale 0 to 10, 0 is no effect, 10 is complete control
# [5] = Rate 500 g/ha, Pre-emergence section of Table B, 0 to 10 scale (0 no effect, 10 complete control)
# [6] = Rate 125 g/ha, scale of 0 to 10 where 0 is no effect and 10 is complete control
# [7] = Rate 250 g/ha, scale 0 to 10 (0 no effect, 10 complete control)
# [8] = Rate 500 g/ha, scale of 0 to 10 where 0 is no effect and 10 is complete control
# [9] = Rate 1000 g/ha, scale 0 to 10 (0 no effect, 10 complete control)
structure (smiles),measurement,setting,value
COP(=O)(CCn1c(=O)on(C(=O)N(c2ccccc2)C(C)C)c1=O)OC [Compound 697],"Plant response rating, Barnyardgrass (0 to 10 scale, 0 is no effect, 10 is complete control)",bamyardgrass; [2],0
same,"Barnyardgrass plant response rating (0 to 10 scale, 0 is no effect, 10 is complete control)",bamyardgrass; [3],0
same,Barnyardgrass plant response rating,bamyardgrass; [4],0
same,Barnyardgrass plant response rating,bamyardgrass; [5],0
same,"Plant response rating, B. signalgrass",surinam grass; [6],0
same,"Plant response rating, B. signalgrass",surinam grass; [7],0
same,"Plant response rating, B. signalgrass",surinam grass; [8],5
same,"Plant response rating, B. signalgrass",surinam grass; [9],9
same,"Plant response rating, Corn",corn; [6],0
same,"Plant response rating, Corn",corn; [7],0
same,"Plant response rating, Corn",corn; [9],0
same,"Plant response rating, Sugarbeets",sugar beet; [6],0
same,"Plant response rating, Sugarbeets",sugar beet; [9],0
same,"Plant response rating, Rape",rape; [6],0
same,"Plant response rating, Rape",rape; [9],0
same,"Plant response rating, Wild oats",wild oat; [6],0
same,"Plant response rating, Wild oats",wild oat; [9],9
same,"Plant response rating, Crabgrass",crabgrass; [6],0
same,"Plant response rating, Crabgrass",crabgrass; [7],4
same,"Plant response rating, Crabgrass",crabgrass; [9],9
same,"Plant response rating, Blackgrass",blackgrass; [6],0
same,"Plant response rating, Blackgrass",blackgrass; [7],2
same,"Plant response rating, Blackgrass",blackgrass; [8],6
same,"Plant response rating, Blackgrass",blackgrass; [9],10
same,"Plant response rating, Bedstraw",bedstraw; [6],0
same,"Plant response rating, Bedstraw",bedstraw; [7],0
same,"Plant response rating, Bedstraw",bedstraw; [8],0
same,"Plant response rating, Bedstraw",bedstraw; [9],0
same,"Plant response rating, Redroot pigweed",pigweed; [6],0
same,"Plant response rating, Redroot pigweed",pigweed; [9],0
same,"Plant response rating, Morningglory",morningglory; [6],0
same,"Plant response rating, Morningglory",morningglory; [9],5
same,"Plant response rating, Giant foxtail",giant foxtail; [6],0
same,"Plant response rating, Giant foxtail",giant foxtail; [9],10
same,"Plant response rating, Soybean",soybean; [6],0
same,"Plant response rating, Soybean",soybean; [9],0
same,"Plant response rating, Nutsedge",purple nutsedge; [6],0
same,"Plant response rating, Nutsedge",purple nutsedge; [9],0
same,"Plant response rating, S. Flatsedge (0 to 10 scale, 0 is no effect, 10 is complete control)",smallflower flatsedge; [2],0
same,"S. Flatsedge plant response rating (0 to 10 scale, 0 is no effect, 10 is complete control)",smallflower flatsedge; [3],0
same,S. Flatsedge plant response rating,smallflower flatsedge; [4],0
same,S. Flatsedge plant response rating,smallflower flatsedge; [5],0
same,"Plant response rating, Wheat",wheat; [6],0
same,"Plant response rating, Wheat",wheat; [9],7
same,"Plant response rating, Rice (0 to 10 scale, 0 is no effect, 10 is complete control)",rice; [2],0
same,"Rice plant response rating (0 to 10 scale, 0 is no effect, 10 is complete control)",rice; [3],0
same,Rice plant response rating,rice; [4],0
same,Rice plant response rating,rice; [5],0
same,"Plant response rating, Ducksalad (0 to 10 scale, 0 is no effect, 10 is complete control)",duck salad; [2],0
same,"Ducksalad plant response rating (0 to 10 scale, 0 is no effect, 10 is complete control)",duck salad; [3],0
same,Ducksalad plant response rating,duck salad; [4],0
same,Ducksalad plant response rating,duck salad; [5],0
same,"Plant response rating, Cocklebur",cocklebur; [7],0
same,"Plant response rating, Cocklebur",cocklebur; [8],0
same,"Plant response rating, Cocklebur",cocklebur; [9],0
same,"Plant response rating, Velvetleaf",velvetleaf; [6],0
same,"Plant response rating, Velvetleaf",velvetleaf; [9],2
CC1COc2ccccc2N1C(=O)C(Cl)Cl (stereo not shown) [benoxacor],Safening of Compound 113 on corn,[1],functioned very effectively as safeners
